In patent US9850283B2, “Macrocyclic inhibitors of the PD-1/PD-L1 and CD80(B7-1)/PD-L1 protein/protein interactions” (BRISTOL-MYERS SQUIBB COMPANY, priority 2013, dated 2017):
Positions of bridges follow the written chain, without caps; N, C: chain ends. Non-standard residues stand in square brackets, D forms with d. Residues, ends and D or L forms follow the SMILES beside them. Ala(cPr) = N[C@@H](CC1CC1)C(=O)O; Hyp = O=C(O)[C@@H]1C[C@@H](O)CN1; tBuAla = CC(C)(C)C[C@H](N)C(=O)O; Cha = N[C@@H](CC1CCCCC1)C(=O)O; NMeNle = CCCC[C@H](NC)C(=O)O; NMeA = CN[C@@H](C)C(=O)O; Abu = CC[C@H](N)C(=O)O; Dap = NC[C@H](N)C(=O)O

How the values were obtained:
[1] = target: T1, Human PD-L1/PD-1 (Homo sapiens, UniProt Q9NZQ7); test: HTRF PD-1-Ig/PD-L1-His binding assay (human PD-L1); details: cluster symbol; read-out: HTRF IC50 cluster
T1 construct: made in house; host or cells: HEK293T
Outline: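 HTRF read-out: Eu cryptate anti-Ig mAb 1 nM final, APC anti-His mAb 20 nM final, added over the binding reaction. Proteins were PD-1-Ig and PD-L1-His ectodomain fusions. Buffer was dPBS, 0.1% BSA, 0.05% Tween-20.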

[2] = target: T2, LK35.2-hPD-L1 cells / PE-labeled PD-1-Ig (Homo sapiens, UniProt Q9NZQ7); test: LK35.2-hPD-L1 cell binding high-content screening assay; assay type: cell-based; details: cell binding assay, cell line not given; cluster symbol; read-out: CBA IC50 cluster
T2 construct: expressed in transfected cells; host or cells: LK35.2 mouse B cell line
Outline: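 Compound effect on PD-1/PD-L1 binding is measured by imaging cell-associated phycoerythrin signal. Human PD-1-Ig (PE on Ig tag, 1 nM final) is applied with compound to a murine B cell line overexpressing human PD-L1 for 1 h at 37 °C in serum-containing RPMI.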

T2 sequence (Q9NZQ7 19-290): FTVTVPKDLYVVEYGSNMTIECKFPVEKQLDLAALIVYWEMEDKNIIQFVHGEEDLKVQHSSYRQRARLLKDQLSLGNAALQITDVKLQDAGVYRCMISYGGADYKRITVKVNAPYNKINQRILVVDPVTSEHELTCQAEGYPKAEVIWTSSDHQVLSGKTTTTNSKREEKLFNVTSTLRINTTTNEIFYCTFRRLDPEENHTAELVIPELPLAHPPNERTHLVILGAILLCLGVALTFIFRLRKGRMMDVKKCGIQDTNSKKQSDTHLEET
T1 sequence (Q9NZQ7 with tags, fused parts or gaps): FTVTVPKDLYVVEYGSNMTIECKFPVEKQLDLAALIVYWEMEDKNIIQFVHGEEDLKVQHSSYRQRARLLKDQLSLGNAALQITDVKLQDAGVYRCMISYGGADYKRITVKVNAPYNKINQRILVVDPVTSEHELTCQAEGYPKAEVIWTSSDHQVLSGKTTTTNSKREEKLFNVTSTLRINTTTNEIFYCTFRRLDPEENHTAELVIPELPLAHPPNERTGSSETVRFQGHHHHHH

Structure (SMILES) | IC50 [1] [nM] | IC50 [2] [nM]
CCCC[C@H]1C(=O)N(C)[C@@H](CCCC)C(=O)N[C@@H](CC2CCCCC2)C(=O)N[C@H](C(=O)NCC(N)=O)CSCC(=O)N[C@@H](Cc2ccc(O)cc2)C(=O)N(C)[C@@H](C)C(=O)N[C@@H](CC(N)=O)C(=O)N2CCC[C@H]2C(=O)N[C@@H](Cc2c[nH]cn2)C(=O)N[C@@H](CCC(N)=O)C(=O)N2C[C@H](O)C[C@H]2C(=O)N[C@@H](Cc2c[nH]c3ccccc23)C(=O)N[C@@H](CO)C(=O)N[C@@H](Cc2c[nH]c3ccccc23)C(=O)N1C [Example 5077] ({CH2CO}-Y[NMeA]NPHQ[Hyp]WSW[NMeNle][NMeNle][Cha]CG-NH2; thioether N-14) | 6.76 to 30.3 | 0.158 to 4.71
CCCC[C@H]1C(=O)N(C)[C@@H](CCCC)C(=O)N[C@@H](CC2CC2)C(=O)N[C@H](C(=O)NCC(N)=O)CSCC(=O)N[C@@H](Cc2ccc(O)cc2)C(=O)N(C)[C@@H](C)C(=O)N[C@@H](CC(N)=O)C(=O)N2CCC[C@H]2C(=O)N[C@@H](Cc2c[nH]cn2)C(=O)N[C@@H](CCC(N)=O)C(=O)N2C[C@H](O)C[C@H]2C(=O)N[C@@H](Cc2c[nH]c3ccccc23)C(=O)N[C@@H](CO)C(=O)N[C@@H](Cc2c[nH]c3ccccc23)C(=O)N1C [Example 5081] ({CH2CO}-Y[NMeA]NPHQ[Hyp]WSW[NMeNle][NMeNle][Ala(cPr)]CG-NH2; thioether N-14) | 0.385 to 6.74 | 4.78 to 72.9
CCCC[C@H]1C(=O)N(C)[C@@H](CCCC)C(=O)N[C@@H](CC(C)C)C(=O)N[C@H](C(=O)NCC(N)=O)CSCC(=O)N[C@@H](Cc2ccc(O)cc2)C(=O)N(C)[C@@H](C)C(=O)N[C@@H](CC(N)=O)C(=O)N2CCC[C@H]2C(=O)N[C@@H](CN)C(=O)N[C@@H](CC2CCCCC2)C(=O)N2C[C@H](O)C[C@H]2C(=O)N[C@@H](Cc2c[nH]c3ccccc23)C(=O)N[C@@H](CO)C(=O)N[C@@H](Cc2c[nH]c3ccccc23)C(=O)N1C [Example 5082] ({CH2CO}-Y[NMeA]NP[Dap][Cha][Hyp]WSW[NMeNle][NMeNle]LCG-NH2; thioether N-14) | 0.385 to 6.74 | 0.158 to 4.71
CCCC[C@H]1C(=O)N(C)[C@@H](CCCC)C(=O)N[C@@H](CC(C)C)C(=O)N[C@H](C(=O)NCC(N)=O)CSCC(=O)N[C@@H](Cc2ccc(O)cc2)C(=O)N(C)[C@@H](C)C(=O)N[C@@H](CC(N)=O)C(=O)N2CCC[C@H]2C(=O)N[C@@H](CN)C(=O)N[C@@H](CC(C)(C)C)C(=O)N2C[C@H](O)C[C@H]2C(=O)N[C@@H](Cc2c[nH]c3ccccc23)C(=O)N[C@@H](CO)C(=O)N[C@@H](Cc2c[nH]c3ccccc23)C(=O)N1C [Example 5083] ({CH2CO}-Y[NMeA]NP[Dap][tBuAla][Hyp]WSW[NMeNle][NMeNle]LCG-NH2; thioether N-14) | 0.385 to 6.74 | 0.158 to 4.71

The next lines start with the values.

IC50 [1] [nM] | IC50 [2] [nM] | Structure (SMILES)
0.385 to 6.74 | 0.158 to 4.71 | CCCC[C@H]1C(=O)N(C)[C@@H](CCCC)C(=O)N[C@@H](CC)C(=O)N[C@H](C(=O)NCC(N)=O)CSCC(=O)N[C@@H](Cc2ccc(O)cc2)C(=O)N(C)[C@@H](C)C(=O)N[C@@H](CC(N)=O)C(=O)N2CCC[C@H]2C(=O)N[C@@H](Cc2c[nH]cn2)C(=O)N[C@@H](CCC(N)=O)C(=O)N2C[C@H](O)C[C@H]2C(=O)N[C@@H](Cc2c[nH]c3ccccc23)C(=O)N[C@@H](CO)C(=O)N[C@@H](Cc2c[nH]c3ccccc23)C(=O)N1C [Example 5078] ({CH2CO}-Y[NMeA]NPHQ[Hyp]WSW[NMeNle][NMeNle][Abu]CG-NH2; thioether N-14)
0.385 to 6.74 | 4.78 to 72.9 | CCCC[C@H]1C(=O)N(C)[C@@H](CCCC)C(=O)N[C@@H](CC(C)C)C(=O)N[C@H](C(=O)NCC(N)=O)CSCC(=O)N[C@@H](Cc2ccc(O)cc2)C(=O)N(C)[C@@H](C)C(=O)N[C@@H](CC(N)=O)C(=O)N2CCC[C@H]2C(=O)N[C@@H](Cc2c[nH]cn2)C(=O)N[C@@H](CCC(N)=O)C(=O)N2CCC[C@H]2C(=O)N[C@@H](Cc2c[nH]c3ccccc23)C(=O)N[C@@H](CO)C(=O)N[C@@H](Cc2c[nH]c3ccccc23)C(=O)N1C [Example 5079] ({CH2CO}-Y[NMeA]NPHQPWSW[NMeNle][NMeNle]LCG-NH2; thioether N-14)
